Columns and labels:
[1] = target: T1, PTEN (phosphatase and tensin homologue deleted on Chromosome 10) (Homo sapiens, UniProt P60484); test: SPR, PTEN immobilised on CM5 chip, Biacore T200, […] Langmuir with mass transport; assay type: binding; conditions: 25 °C, HBS; PIP3 25-400 μM; acyl chains of PIP3 not told
T1 construct: commercial recombinant PTEN; immobilised on CM5 chip for SPR

[2] = target: T1, PTEN (phosphatase and tensin homologue deleted on Chromosome 10); test: malachite green phosphate release from PIP3; assay type: biochemical; conditions: PIP3 200 μM, PTEN 50 μM, IHP 2.5-40 mM; Tris-HCl pH 7.5, 10 mM DTT, 37 °C

T1 sequence (P60484 2-403): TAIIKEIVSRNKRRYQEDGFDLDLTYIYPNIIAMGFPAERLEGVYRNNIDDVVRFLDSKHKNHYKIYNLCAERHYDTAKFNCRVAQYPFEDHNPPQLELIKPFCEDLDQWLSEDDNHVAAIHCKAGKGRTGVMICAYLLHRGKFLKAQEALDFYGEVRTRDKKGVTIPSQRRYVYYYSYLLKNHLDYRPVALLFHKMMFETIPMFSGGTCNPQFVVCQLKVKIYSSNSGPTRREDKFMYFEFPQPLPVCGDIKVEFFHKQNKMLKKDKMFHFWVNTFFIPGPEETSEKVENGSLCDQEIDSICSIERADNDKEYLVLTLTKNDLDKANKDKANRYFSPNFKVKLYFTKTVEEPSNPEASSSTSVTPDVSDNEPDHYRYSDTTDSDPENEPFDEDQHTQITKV

| Compound | K D [1] | malachite green phosphate release from PIP3 [2] |
| --- | --- | --- |
| PIP3 | ~ 2.5 micromoles | – |
| O=P(O)(O)O[C@H]1[C@H](OP(=O)(O)O)[C@@H](OP(=O)(O)O)[C@H](OP(=O)(O)O)[C@@H](OP(=O)(O)O)[C@H]1OP(=O)(O)O [IHP] | – | IHP inhibits hydrolysis in a concentration‐dependent manner |
